Assays:
[1] = tested on: cholesterol associated with HDL, LDL and VLDL; assay: Incubation of plasma with PI: lipoprotein cholesterol levels; assay type: biochemical, human; conditions: added to blood plasma of fasted normolipidemic subject
Procedure: Referring now to FIG. 2, there is graphically depicted the effect of incubations with PI on the amount of cholesterol associated with HDL (high density lipoprotein), LDL (low density lipoprotein) and VLDL (very low density lipoproteins) following isolation of lipoproteins from plasma of fasted normolipidemic subjects. […] This appears due to the electrostatic effects, that increased lipoprotein PI concentrations have on cholesteryl ester transfer protein. Previous work has shown that this protein controls interlipoprotein cholesterol transfers and is affected by lipoprotein charge (Lagrost 1997).

[2] = target: T1, lecithin:cholesterol acyltransferase (LCAT) (Oryctolagus cuniculus, UniProt P53761); assay: Plasma cholesterol esterification by LCAT after injection of PC or PI; assay type: in vivo, rabbit
T1 construct: endogenous LCAT activity is reduced to about 18% that of normal; from tissue; host or cells: plasma of PI- or PC-injected rabbits
T1 sequence (P53761 25-440): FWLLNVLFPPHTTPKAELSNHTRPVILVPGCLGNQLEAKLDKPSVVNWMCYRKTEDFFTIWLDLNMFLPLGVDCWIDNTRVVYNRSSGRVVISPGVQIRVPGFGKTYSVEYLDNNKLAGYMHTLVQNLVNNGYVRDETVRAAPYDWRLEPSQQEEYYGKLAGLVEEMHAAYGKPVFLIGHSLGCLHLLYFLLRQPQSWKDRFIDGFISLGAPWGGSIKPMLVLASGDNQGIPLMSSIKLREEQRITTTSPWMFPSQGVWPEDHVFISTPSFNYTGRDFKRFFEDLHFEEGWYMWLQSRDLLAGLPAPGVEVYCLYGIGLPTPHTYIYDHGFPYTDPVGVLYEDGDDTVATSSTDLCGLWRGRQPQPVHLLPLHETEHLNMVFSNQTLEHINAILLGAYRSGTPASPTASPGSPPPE
Procedure: Male New Zealand white rabbits (3.5-4.0 kg) are fasted for 12 hours prior to injection and remain fasted until after data for the final time point is taken. Rabbits have free access to water during this time. A catheter is inserted into the marginal ear vein and blood samples are collected into tubes containing 7.5% (K3) EDTA solution at the desired time points. A pre-injection blood sample is taken and the vesicle solution of either PI (n=4), or PC (n=2) or saline (n=1) is injected into the marginal ear vein. A sample of blood is removed at 10, 30 min, 1, 3, 6 and 24 h after the injection. All blood samples are placed on ice and then centrifuged at 3000 rpm for 15 min at 4° C. to separate the plasma. In order to ensure that lecithin:cholesterol acyl transferase (LCAT) is inhibited in the stored plasma, iodoacetamide (150 mM) is added to plasma samples as taught by Guerin et al. (1994). The effect of PI on LCAT activity is examined using plasma samples that are not treated with iodoacetamide. 400 μL aliquots of plasma for each time point are incubated for 30 min with 10 μCi of [^3H]-FC on filter paper discs (Dobiasova et al., 1991) at 37° C. and the reaction is terminated with the addition of 2 mL ethanol. Reaction products are extracted in hexane and the amount of [^3H] associated with CE and FC is determined by thin layer chromatography. […] However, endogenous LCAT activity is reduced to about 18% that of normal (PC injected control) after about 10 min post injection of PI. Also, PI injection reduces the fractional rate of cholesterol esterification from about 45% to about 8%, of initial values, per hour. […] To investigate the effect of PI on the production and transport of CE in the plasma, the amount of radioactive CE was measured at each time point (data not shown). […] Rather it appears that PI may modify intravascular cholesterol levels by mobilizing a cellular cholesterol pool.

[3] = tested on: HDL, LDL and VLDL cholesterol; assay: PI injections into hypercholesterolemic (cholesterol-fed) rabbits: lipoprotein cholesterol levels; assay type: in vivo, rabbit; conditions: 36 mg 2× daily for 7 days
Procedure: Referring now to FIG. 8, there is graphically depicted the effect of PI injection on lipoprotein cholesterol levels in hypercholesterolemic rabbits. Rabbits were fed a diet enriched in cholesterol for a period of 4 weeks to increase the levels of cholesterol in the LDL and VLDL particles in the bloodstream. One half of the study rabbits were then injected with 36 mg of PI 2× daily for 7 days. On day 7, plasma samples were drawn and lipoproteins were fractionated by size exclusion chromatography on two Superose 6 columns. Shown are gel filtration profiles for the different rabbit plasmas, which illustrate the levels of cholesterol in the various lipoprotein fractions. The untreated hypercholesterolemic rabbit plasma sample is shown to have high levels of LDL and VLDL cholesterol. PI injections caused a greater than 7-fold reduction in VLDL cholesterol and about a 2.5-fold reduction in LDL cholesterol levels over the 7 day period. […] PI therefore can be used to treat hypercholesterolemia and reduce plasma LDL and VLDL cholesterol levels.

## CCCCCCCC/C=C\CCCCCCCC(=O)O[C@H](COC(=O)CCCCCCCCCCCCCCC)COP(=O)(O)O[C@@H]1[C@H](O)[C@H](O)[C@@H](O)[C@H](O)[C@H]1O [PI, 1-palmitoyl-2-oleoyl phosphatidylinositol]
[1]
  effect on cholesterol in LDL, VLDL and HDL: reduction of cholesterol in LDL and VLDL and increase in HDL cholesterol levels
[2]; about 10 min post injection
  endogenous LCAT activity, of normal (PC injected control): about 18%
[2]; after a period of time following vesicle injection
  LCAT activity returned to, of normal: about 75%
[2]; after injection of vesicles
  effect on LCAT activity / cholesteryl esterification: almost completely inhibits
[2]; initial time points, vs PC injected rabbit
  less [3H]-CE in plasma than in the control: 85%
[2]; of initial values, per hour, reduced from about 45%
  fractional rate of cholesterol esterification: about 8%
[3]
  effect on amount of cholesterol in the HDL particles: slightly increased
  reduction in LDL cholesterol levels: ~2.5 fold
  reduction in VLDL cholesterol: greater than 7 fold

— patent US7390783B2, “Charged phospholipid compositions and methods for their use” (Ottawa Heart Institute Research Corporation, priority 2000, dated 2008)
